Measurements from article PMC8882856, “The affinity and selectivity of α‐adrenoceptor antagonists, antidepressants and antipsychotics for the human α2A, α2B, and α2C‐adrenoceptors and comparison with human α1 and β‐adrenoceptors” (Pharmacology Research & Perspectives, 2022).
Entries after “also recorded” stand apart in the source; their conditions may differ. Read-outs that look alike come from different tables or passages of the source. One block for each compound: values may come before it.

Columns and labels:
[1] = target: T1, human α2A‐adrenoceptor (Homo sapiens, UniProt P08913); test: ^3H‐rauwolscine whole cell competition binding, CHO‐α2A cells
T1 sequence (P08913 1-465): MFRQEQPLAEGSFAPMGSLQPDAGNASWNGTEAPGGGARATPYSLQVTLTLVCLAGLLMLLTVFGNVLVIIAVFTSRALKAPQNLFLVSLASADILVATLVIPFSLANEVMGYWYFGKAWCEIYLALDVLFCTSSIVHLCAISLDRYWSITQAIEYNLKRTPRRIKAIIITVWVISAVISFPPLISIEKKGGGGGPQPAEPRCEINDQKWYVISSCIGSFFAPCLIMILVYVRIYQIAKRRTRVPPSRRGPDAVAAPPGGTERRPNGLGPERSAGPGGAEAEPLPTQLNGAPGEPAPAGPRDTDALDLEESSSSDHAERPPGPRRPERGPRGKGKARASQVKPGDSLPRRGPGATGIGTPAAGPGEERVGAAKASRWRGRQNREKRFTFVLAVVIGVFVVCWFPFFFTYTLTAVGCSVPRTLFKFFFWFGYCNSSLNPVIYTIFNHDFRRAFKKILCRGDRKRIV

[2] = target: T2, human α2C‐adrenoceptor (Homo sapiens, UniProt P18825); test: ^3H‐rauwolscine whole cell competition binding, CHO‐α2C cells; settings: for Selectivity ratio α2A vs α2C (higher affinity for α2C) / Selectivity ratio α2B vs α2C (higher affinity for α2C): ratio of KD values
T2 sequence (P18825 1-462): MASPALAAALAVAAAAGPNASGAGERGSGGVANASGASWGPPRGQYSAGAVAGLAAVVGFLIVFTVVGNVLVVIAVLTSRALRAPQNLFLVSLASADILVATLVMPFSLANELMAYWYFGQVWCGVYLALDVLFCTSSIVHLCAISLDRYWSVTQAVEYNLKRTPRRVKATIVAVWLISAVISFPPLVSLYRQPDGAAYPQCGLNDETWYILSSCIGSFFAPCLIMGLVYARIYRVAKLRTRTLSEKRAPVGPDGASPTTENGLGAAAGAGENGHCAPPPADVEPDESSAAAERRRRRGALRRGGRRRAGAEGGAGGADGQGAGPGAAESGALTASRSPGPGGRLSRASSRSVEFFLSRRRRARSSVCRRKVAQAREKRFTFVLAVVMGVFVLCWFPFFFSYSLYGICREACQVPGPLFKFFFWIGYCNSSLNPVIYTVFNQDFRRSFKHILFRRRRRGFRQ

[3] = target: human β2‐adrenoceptor (Homo sapiens, UniProt P07550); assay type: binding
[4] = target: T3, human α2B‐adrenoceptor (Homo sapiens, UniProt P18089); test: ^3H‐rauwolscine whole cell competition binding, CHO‐α2B cells
T3 sequence (P18089 1-450): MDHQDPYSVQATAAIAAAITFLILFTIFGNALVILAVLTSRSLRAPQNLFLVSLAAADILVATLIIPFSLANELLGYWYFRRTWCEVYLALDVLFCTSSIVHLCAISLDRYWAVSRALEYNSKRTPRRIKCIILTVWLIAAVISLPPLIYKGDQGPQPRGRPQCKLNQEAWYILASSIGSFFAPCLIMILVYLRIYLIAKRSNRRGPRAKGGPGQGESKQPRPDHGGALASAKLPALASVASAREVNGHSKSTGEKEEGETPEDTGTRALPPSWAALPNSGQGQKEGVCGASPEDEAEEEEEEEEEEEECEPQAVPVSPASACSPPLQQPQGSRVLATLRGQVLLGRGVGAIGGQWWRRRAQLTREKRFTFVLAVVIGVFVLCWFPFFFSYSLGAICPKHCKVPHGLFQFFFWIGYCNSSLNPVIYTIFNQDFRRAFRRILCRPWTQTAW

[5] = target: human β1‐adrenoceptor (Homo sapiens, UniProt P08588)
[6] = target: T1, human α2A‐adrenoceptor; test: cell-based
[7] = ^3H‐CGP12177 whole cell binding, log values, mean ± s.e.mean, ^app = apparent KD, 'no binding to' = log top concentration
[8] = given as log KD (negative values), 3H-CGP12177 whole cell binding, CHO cells, mean ± s.e.mean
[9] = proportion of site 1 in two-site fit
[10] = two-component inhibition, proportion of higher affinity site

Chain of human β1‐adrenoceptor (P08588 whole entry): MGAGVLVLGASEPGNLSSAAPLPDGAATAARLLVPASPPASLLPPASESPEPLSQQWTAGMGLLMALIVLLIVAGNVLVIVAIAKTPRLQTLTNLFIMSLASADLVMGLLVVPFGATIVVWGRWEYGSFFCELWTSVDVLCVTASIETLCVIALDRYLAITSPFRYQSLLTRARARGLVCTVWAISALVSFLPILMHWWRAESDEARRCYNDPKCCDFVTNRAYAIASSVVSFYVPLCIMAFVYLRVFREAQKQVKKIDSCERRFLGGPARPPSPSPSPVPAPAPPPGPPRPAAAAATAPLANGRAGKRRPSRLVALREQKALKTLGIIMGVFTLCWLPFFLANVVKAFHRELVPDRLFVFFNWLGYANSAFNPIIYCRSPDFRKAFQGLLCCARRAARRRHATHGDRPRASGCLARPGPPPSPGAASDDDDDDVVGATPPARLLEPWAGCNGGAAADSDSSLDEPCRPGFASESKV
Chain of human β2‐adrenoceptor (P07550 whole entry): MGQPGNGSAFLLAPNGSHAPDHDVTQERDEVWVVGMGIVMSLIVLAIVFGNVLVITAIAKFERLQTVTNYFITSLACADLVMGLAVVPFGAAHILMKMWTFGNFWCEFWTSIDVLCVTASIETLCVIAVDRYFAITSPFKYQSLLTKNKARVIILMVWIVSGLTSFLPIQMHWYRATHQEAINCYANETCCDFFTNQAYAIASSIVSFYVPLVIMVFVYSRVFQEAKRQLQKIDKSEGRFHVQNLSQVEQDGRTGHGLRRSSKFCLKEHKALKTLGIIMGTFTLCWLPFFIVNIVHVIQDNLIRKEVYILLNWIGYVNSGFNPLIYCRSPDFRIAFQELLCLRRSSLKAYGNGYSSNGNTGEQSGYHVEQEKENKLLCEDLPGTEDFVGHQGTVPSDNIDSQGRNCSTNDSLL

- Log KD α2A (^app = apparent affinity) ([1]; log KD, negative sign, apparent KD from extrapolated curve, maximum concentration inhibited most but not all specific binding): -4.86 ± 0.07^app
SMILES: CC(C)OC(=O)c1cc2c(OCC(O)CNC(C)(C)C)cccc2[nH]1 (stereo not shown) [SDZ 21009]

SMILES: CN1[C@H]2C[C@H](OC(=O)[C@H](CO)c3ccccc3)C[C@@H]1[C@@H](O)C2 [anisodamine]
- Log KD α2C [2]: −3.56 ± 0.07^app
- IC50 (log) α2A, IC50>top concentration used [1]: IC50>−3
- Log KD β2 [3]: no binding to −3; also recorded: no binding to -3
- IC50 (log) α2B, IC50>top concentration used [4]: IC50>−3
- Log KD β1 [5]: no binding to −3; also recorded: no binding to -3

SMILES: CCC1(c2cnc[nH]2)Cc2ccccc2C1 [atipamezole]
- Kd [1]: 3.16 nM
- Log KD β2 [3, 7]: No binding to −4.5
- Log KD β2 [3, 8]: No binding to -4.5
- Log KD β1 [5, 7]: No binding to −4.5
- Log KD β1 [5, 8]: No binding to -4.5

SMILES: COc1cccc(OC)c1OCCNCC1CSc2ccccc2O1 (stereo not shown) [benoxathian]
- Log KD α2C [2]: −7.75 ± 0.03
- Selectivity ratio α2A vs α2C (higher affinity for α2C) [2]: 3.8
- Selectivity ratio α2B vs α2C (higher affinity for α2C) [2]: 61.7
- Log KD α2A [1]: −7.17 ± 0.02
- Selectivity ratio α2A vs α2B (higher affinity for α2A) ([1]; ratio of KD values): 16.2
- Log KD β2 [3, 7]: −5.08 ± 0.06
- Log KD α2B [4]: −5.96 ± 0.06
- Log KD β1 [5, 7]: −4.55 ± 0.03^app

- IC50 [2]: > 100 µM
- IC50 [1]: > 100 µM
- Log KD β2 [3, 7]: No binding to −4
- Log KD β2 [3, 8]: No binding to -4
- Log KD β1 [5, 7]: No binding to −4
- Log KD β1 [5, 8]: No binding to -4
SMILES: CN(C)CCCC1(c2ccc(F)cc2)OCc2cc(C#N)ccc21 (stereo not shown) [citalopram]

- Kd [6]: 1.95 µM
SMILES: CN(C)CCCN1c2ccccc2CCc2ccc(Cl)cc21 [clomipramine]

SMILES: CC(C)(C)NCC(O)COc1cccc2[nH]c(C#N)cc12 (stereo not shown) [cyanopindolol]
- Kd [2]: 708 nM
- Kd [1]: 2750 nM
- Kd [4]: 15.1 µM

SMILES: CCC1(C2=NCCN2)Cc2ccccc2O1 (stereo not shown) [eforaxan]
- Log KD β2 [3, 7]: no binding to −3
- Log KD β2 [3, 8]: no binding to -3
- Log KD β1 [5, 7]: no binding to −3
- Log KD β1 [5, 8]: no binding to -3

SMILES: CNCCCN1c2ccccc2CCc2ccc(Cl)cc21 [norclomipramine]
- Log KD α2C [2]: −5.80 ± 0.07^app
- Selectivity ratio α2A vs α2C (higher affinity for α2C) [2]: 3.2
- Selectivity ratio α2B vs α2C (higher affinity for α2C) [2]: 1.1
- Log KD α2A [1]: −5.29 ± 0.09^app
- IC50 (log) β2, IC50>top concentration used ([3]; ^3H‐CGP12177, log value): IC50>−4.5
- Log KD α2B [4]: −5.74 ± 0.04^app
- Selectivity ratio α2A vs α2B (higher affinity for α2B) ([4]; ratio of KD values): 2.8
- IC50 (log) β1, IC50>top concentration used ([5]; ^3H‐CGP12177, log value): IC50>−4.5

SMILES: CC(COc1ccccc1)N(CCCl)Cc1ccccc1 (stereo not shown) [phenoxybenzamine]
- % site 1 α2C (percentage through first component) [2]: −6.41 ± 0.11 −4.71 ± 0.13 74.1 ± 4.1% site 1
- % site 1, α2C [2, 9]: 74.1 ± 4.1%
- % site 1, α2C [2, 10]: 74.1 ± 4.1%
- % site 1 α2B (percentage through first component) [4]: −6.44 ± 0.11 −4.89 ± 0.08 51.4 ± 3.3% site 1
- % site 1, α2B [4, 9]: 51.4 ± 3.3%
- % site 1, α2B [4, 10]: 51.4 ± 3.3%

- Kd [6]: 10 µM
SMILES: CNCCCC1c2ccccc2C=Cc2ccccc21 [protriptyline]

- Log KD β2 [3, 7]: No binding to −4
- Log KD β2 [3, 8]: No binding to -4
- Log KD β1 [5, 7]: No binding to −4
- Log KD β1 [5, 8]: No binding to -4
SMILES: O=C1Cc2cc(CCN3CCN(c4nsc5ccccc45)CC3)c(Cl)cc2N1 [ziprasidone]
